Our source for the IC50 values is BindingDB's records for doi:10.1021/acs.jmedchem.1c00019 (National Center For Advancing Translational Sciences, 2021).

Where “and” joins values, the source holds several entries; their conditions need not be identical. Equal values may be shown once.

Test [1] addresses T1, Isocitrate dehydrogenase [NADP] cytoplasmic (Homo sapiens, UniProt O75874). Nature of the test: Inhibition of IDH1 R132H mutant (unknown origin) assessed as reduction in NADPH consumption using alpha-KG as substrate incubated for 5 mins by diaphorase/resazurin-coupled system. (In general: The colour change of resazurin is a common sign of viable cells or microbes.)
Target sequence in this assay (O75874 2-414 R132H limits assumed): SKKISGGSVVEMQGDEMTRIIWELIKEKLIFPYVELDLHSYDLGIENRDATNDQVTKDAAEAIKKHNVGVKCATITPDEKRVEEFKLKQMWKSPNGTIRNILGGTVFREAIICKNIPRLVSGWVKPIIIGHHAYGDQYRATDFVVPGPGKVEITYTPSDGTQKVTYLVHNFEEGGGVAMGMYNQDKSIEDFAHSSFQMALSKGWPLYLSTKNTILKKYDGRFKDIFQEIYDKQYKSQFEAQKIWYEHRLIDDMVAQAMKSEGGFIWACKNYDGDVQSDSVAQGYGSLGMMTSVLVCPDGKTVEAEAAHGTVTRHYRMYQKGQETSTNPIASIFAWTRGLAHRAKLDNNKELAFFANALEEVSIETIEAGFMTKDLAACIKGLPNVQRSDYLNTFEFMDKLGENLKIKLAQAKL
In test [2] the target is T1, Isocitrate dehydrogenase [NADP] cytoplasmic. Nature of the test: Inhibition of IDH1 R132C mutant (unknown origin) assessed as reduction in NADPH consumption using alpha-KG as substrate incubated for 5 mins by diaphorase/resazurin-coupled system.
Target sequence in this assay (O75874 2-414 R132C limits assumed): as the sequence (O75874 2-414 R132H limits assumed) above, with H131C counted along it

One may read the IC50 as the concentration that gives 50% inhibition. Turning to `CCc1ccc(Cl)cc1-n1c(C=C(C)C)c(C(=O)N2CCNCC2)cc(-c2nc(-c3ccc(Cl)cc3)cs2)c1=O`, the IC50 in test [1] is 114 nM and 81 nM; in test [2], 100 nM and 72 nM. Turning to `CCc1ccc(OC)cc1-n1c(C=C(C)C)c(C(=O)N2CCNCC2)cc(-c2nc(-c3ccc(Cl)cc3)cs2)c1=O`, in test [2], the half-inhibitory concentration (IC50) was 130 nM.
